Reference: ChEMBL document CHEMBL5620365, “Synthesis and evaluation of piperazinotriazoles. Discovery of a potent and orally bioavailable neurokinin-3 receptor inhibitor” (Eur J Med Chem, 2023)

Assays:
in vivo [1] = conditions: Sprague-Dawley, rat, iv, 1 mg/kg
in vivo [2] = conditions: Sprague-Dawley, rat, liver, po, 5 mg/kg
in vivo [3] = conditions: Sprague-Dawley, rat, iv, 1 mg/kg; remark: listed apart in the source
in vivo [4] = conditions: Sprague-Dawley, rat, iv, 1 mg/kg; remark: listed apart in the source
in vivo [5] = conditions: Sprague-Dawley, rat, brain, po, 5 mg/kg
in vivo [6] = conditions: Sprague-Dawley, rat, po, 5 mg/kg
in vivo [7] = conditions: Sprague-Dawley, rat, po, 5 mg/kg; remark: listed apart in the source
in vitro [8] = conditions: rat, liver microsomes
in vivo [9] = conditions: Sprague-Dawley, rat, iv, 1 mg/kg; remark: listed apart in the source
in vitro [10] = conditions: human, liver microsomes
in vivo [11] = conditions: Sprague-Dawley, rat, po, 5 mg/kg; remark: listed apart in the source
in vivo [12] = conditions: Sprague-Dawley, rat, po, 5 mg/kg; remark: listed apart in the source
in vivo [13] = conditions: Sprague-Dawley, rat, brain, po, 5 mg/kg; remark: listed apart in the source
in vivo [14] = conditions: Sprague-Dawley, rat, iv, 1 mg/kg; remark: listed apart in the source

Work on `Cc1nsc(-c2nnc3n2CCN(C(=O)c2ccc(F)cc2)[C@@H]3C)n1` [FEZOLINETANT] yielded a Cmax at 24 h (in vivo [1]) of 1770 ng/mL, a concentration at 1 h (in vivo [2]) of 12100 ng/g and an AUC(0-t) at 24 h (in vivo [3]) of 5590 ng·h/mL. For the same compound, the half-life at 24 h (in vivo [4]) was 2.94 h, the concentration at 1 h (in vivo [5]) was 1020 ng/g and the AUC(0-t) at 24 h (in vivo [6]) was 31600 ng·h/mL. It also gave a Cmax at 24 h (in vivo [7]) of 3630 ng/mL, a CLint scaled at 0.25 h (in vitro [8]) of less than 6.8 mL/min/kg and a clearance at 24 h (in vivo [9]) of 2.93 mL/min/kg. For the same compound, the CLint scaled at 0.25 h (in vitro [10]) was less than 13.5 mL/min/kg, the half-life at 24 h (in vivo [11]) was 3.72 h and the Tmax at 24 h (in vivo [12]) was 1.83 h. It also gave a concentration at 10 h (in vivo [13]) of 297 ng/g and a Vd at 24 h (in vivo [14]) of 0.751 L/kg.
